System: LNCaP cells
Test: LNCaP cell viability assay (MTS)
Format: cell-based
Details: Homo sapiens, LNCaP, 48 h, LNCaP cell line, 48 hours treatment
Description: LNCaP cell line was used for the cell viability assay. LNCaP cells were plated in 96-well plates at a density of 5000 cells per well. After 24 hours of plating, the cells were treated with increasing doses of compound 1-100 ranging from 1 μM to 80 μM. Relative cell numbers were analyzed after 48 hours using 3-(4,5-dimethylthiazol-2-yl)-5-(3-carboxymethoxyphenyl)-2-(4-sulfophenyl)-2H-tetrazolium (MTS) assay (Promega) according to the manufacturer's instructions.
The cell viability data was analyzed with GraphPad Prism software. The values were log transformed and analyzed with non-linear regression (curve-fit) using log(inhibitor) vs. response—variable slope (four parameters) and constraining the bottom to equal zero. Unless otherwise indicated, the GI50 values provided in Table 35 correspond to the LNCaP cell viability assays.

Compared with `O=S(=O)(NC1(c2ccc(F)cc2F)CCNCC1)c1ccc(OC(F)(F)F)cc1` [Compound 83, N-(4-(2,4-difluorophenyl)piperidin-4-yl)-4-(trifluoromethoxy)benzenesulfonamide], `O=S(=O)(NC1(c2ccc(Cl)cc2F)CCNCC1)c1ccc(OC(F)(F)F)cc1` [Compound 94, N-(4-(4-chloro-2-fluorophenyl)piperidin-4-yl)-4-(trifluoromethoxy)benzenesulfonamide] is 2-fold lower in GI50: 32 µM for the first, 15.8 µM for the second.

Compared with `CC(C)(C)OC(=O)N1CCCC1C1(NS(=O)(=O)c2ccc(OC(F)(F)F)cc2)CC1` (stereo not shown) [Compound 23], `CC(C)(C)OC(=O)N1CCC([C@@H]2C[C@H]2NS(=O)(=O)c2ccc(OC(F)(F)F)cc2)CC1` (racemic) [Compound 24] is 1.6-fold lower in GI50: 26 µM for the first, 16 µM for the second.

`CC(C)C1N(Cc2ccccc2)CC12C[C@@H](O)[C@H](NS(=O)(=O)c1ccc(OC(F)(F)F)cc1)C2` (mixture of isomers) [Compound 31] and `CCC(C(=O)N1CCC(NS(=O)(=O)c2ccc(OC(F)(F)F)cc2)CC1)c1ccccc1` (stereo not shown) [Compound 17, N-(1-(2-phenylbutanoyl)piperidin-4-yl)-4-(trifluoromethoxy)benzene-sulfonamide] are within 1.5-fold of each other in GI50: 45 µM for the first, 58 µM for the second.

Going from `O=S(=O)(NC1(c2ccc(Cl)cc2)CCN(C2COC2)C1)c1ccc(OC(F)(F)F)cc1` (stereo not shown) [Compound 71, N-(3-(4-chlorophenyl)-1-(oxetan-3-yl)pyrrolidin-3-yl)-4-(trifluoromethoxy)benzenesulfonamide] to `CN1CCC(NS(=O)(=O)c2ccc(OC(F)(F)F)cc2)(c2ccc(Cl)cc2)C1` (stereo not shown) [Compound 69, N-(3-(4-chlorophenyl)-1-methylpyrrolidin-3-yl)-4-(trifluoromethoxy)benzenesulfonamide], the GI50 falls from 59.1 µM to 19.5 µM (3-fold).

`CCC1CC1(NS(=O)(=O)c1ccc(OC(F)(F)F)cc1)c1cccc(C)c1` (stereo not shown) [Compound 28, N-(2-ethyl-1-(m-tolyl)cyclopropyl)-4-(trifluoromethoxy)benzene-sulfonamide] and `O=S(=O)(NC1(c2cccc(Cl)c2)CCCC1)c1ccc(OC(F)(F)F)cc1` [Compound 14, N-(1-(3-chlorophenyl)cyclopentyl)-4-(trifluoromethoxy)benzene-sulfonamide] are within 1.5-fold of each other in GI50: 62 µM for the first, 42.8 µM for the second.

Compared with `O=S(=O)(NC1(c2ccc(Cl)c(F)c2)CCNC1)c1ccc(OC(F)(F)F)cc1` (stereo not shown) [Compound 52, N-(3-(4-chloro-3-fluorophenyl)pyrrolidin-3-yl)-4-(trifluoromethoxy)benzenesulfonamide], `O=S(=O)(NC1(c2ccc(Cl)cc2)CCNC1)c1ccc(OC(F)(F)F)cc1` (stereo not shown) [Compound 39, N-(3-(4-chlorophenyl)pyrrolidin-3-yl)-4-(trifluoromethoxy)benzene-sulfonamide] is 1.7-fold lower in GI50: 23.4 µM for the first, 14 µM for the second.

`O=S(=O)(NC1(c2ccc(F)cc2)CCNC1)c1ccc(OC(F)(F)F)cc1` (stereo not shown) [Compound 74, N-(3-(4-fluorophenyl)pyrrolidin-3-yl)-4-(trifluoromethoxy)benzenesulfonamide] and `CC(C)Oc1ccc(S(=O)(=O)NC2(c3ccc(F)cc3)CCNC2)cc1` (stereo not shown) [Compound 78, N-(3-(4-fluorophenyl)pyrrolidin-3-yl)-4-isopropoxybenzenesulfonamide] are within 1.5-fold of each other in GI50: 47.9 µM for the first, 70.5 µM for the second.

`O=S(=O)(N[C@@H]1C[C@H]1c1ccc(Cl)cc1)c1ccc(OC(F)(F)F)cc1` (racemic) [Compound 42, rac N-((1R,2S)-2-(4-chlorophenyl)cyclopropyl)-4-(trifluoromethoxy)benzenesulfonamide] and `CN1CC[C@@H](NS(=O)(=O)c2ccc(OC(F)(F)F)cc2)[C@@H]1c1ccc(Cl)cc1` (racemic) [Compound 9] are within 1.5-fold of each other in GI50: 67.2 µM for the first, 51.5 µM for the second.

Going from `O=S(=O)(NC1(c2ccc(Cl)cc2)CCN(Cc2ccccc2)C1)c1ccc(Oc2ccc(C(F)(F)F)cc2)cc1` (stereo not shown) [Compound 54, N-(1-benzyl-3-(4-chlorophenyl)pyrrolidin-3-yl)-4-(4-(trifluoromethyl)phenoxy)benzenesulfonamide] to `O=S(=O)(NC1(c2ccc(Cl)cc2)CCNC1)c1ccc(Oc2ccc(C(F)(F)F)cc2)cc1` (stereo not shown) [Compound 57, N-(3-(4-chlorophenyl)pyrrolidin-3-yl)-4-(4-(trifluoromethyl)phenoxy)benzenesulfonamide], the GI50 falls from 26.8 µM to 10.6 µM (2.5-fold).

Compared with `CC(C)Oc1ccc(S(=O)(=O)NC2(c3ccc(Cl)cc3)CCNCC2)cc1` [Compound 62, N-(4-(4-chlorophenyl)piperidin-4-yl)-4-isopropoxybenzenesulfonamide], `CC(C)Oc1ccc(S(=O)(=O)NC2(c3ccc(F)cc3)CCNCC2)cn1` [Compound 77, N-(4-(4-fluorophenyl)piperidin-4-yl)-6-isopropoxypyridine-3-sulfonamide] is 3.7-fold higher in GI50: 11.3 µM for the first, 41.7 µM for the second.

Going from `O=S(=O)(NC1(c2ccc(F)c(F)c2)CCNCC1)c1ccc(OC(F)(F)F)cc1` [Compound 82, N-(4-(3,4-difluorophenyl)piperidin-4-yl)-4-(trifluoromethoxy)benzenesulfonamide] to `O=S(=O)(NC1(c2ccc(Cl)cn2)CCNCC1)c1ccc(OC(F)(F)F)cc1` [Compound 87, N-(4-(5-chloropyridin-2-yl)piperidin-4-yl)-4-(trifluoromethoxy)benzenesulfonamide], the GI50 rises from 14.4 µM to 46.6 µM (3.2-fold).

Compared with `O=S(=O)(NC1(c2ccc(Cl)c(Cl)c2)CC1)c1ccc(OC(F)(F)F)cc1` [Compound 89, N-(1-(3,4-dichlorophenyl)cyclopropyl)-4-(trifluoromethoxy)benzenesulfonamide], `O=S(=O)(N[C@@H]1CNC[C@@H]1c1ccc(Cl)c(Cl)c1)c1ccc(OC(F)(F)F)cc1` (racemic) [Compound 51, rac N-((3R,4R)-4-(3,4-dichlorophenyl)pyrrolidin-3-yl)-4-(trifluoromethoxy)benzenesulfonamide] is 4.5-fold lower in GI50: 46.6 µM for the first, 10.4 µM for the second.

Compared with `CCOc1cc(CN2CCC(NS(=O)(=O)c3ccc(OC(F)(F)F)cc3)CC2)ccc1O` [Compound 30, N-(1-(3-ethoxy-4-hydroxybenzyl)piperidin-4-yl)-4-(trifluoromethoxy)benzene-sulfonamide], `O=S(=O)(NC1CCCN(c2ccc(Cl)c(Cl)c2)C1)c1ccc(OC(F)(F)F)cc1` (stereo not shown) [Compound 5, N-(1-(3,4-dichlorophenyl)piperidin-3-yl)-4-(trifluoromethoxy)benzene-sulfonamide] is 1.8-fold higher in GI50: 30 µM for the first, 52.8 µM for the second.

Going from `CC(C)(C)OC(=O)N1CCC(NS(=O)(=O)c2ccc(OC(F)(F)F)cc2)(c2ccc(Cl)cc2)CC1` [Compound 53, tert-butyl 4-(4-chlorophenyl)-4-((4-(trifluoromethoxy)phenyl)sulfonamido)piperidine-1-carboxylate] to `CN1CCC(NS(=O)(=O)c2ccc(OC(F)(F)F)cc2)(c2ccccc2)CC1` [Compound 61, N-(1-methyl-4-phenylpiperidin-4-yl)-4-(trifluoromethoxy)benzenesulfonamide], the GI50 rises from 16.3 µM to 44.1 µM (2.7-fold).

Going from `O=S(=O)(NC1CCOc2c(F)ccc(F)c21)c1ccc(OC(F)(F)F)cc1` (stereo not shown) [Compound 10, N-(5,8-difluorochroman-4-yl)-4-(trifluoromethoxy)benzene-sulfonamide] to `O=C1CCC(NS(=O)(=O)c2ccc(OC(F)(F)F)cc2)c2ccc(OC(F)F)cc21` (stereo not shown) [Compound 25, N-(6-(difluoromethoxy)-4-oxo-1,2,3,4-tetrahydronaphthalen-1-yl)-4-(trifluoromethoxy)benzene-sulfonamide], the GI50 falls from 67.5 µM to 30 µM (2.2-fold).

`O=S(=O)(NC1(c2ncc(Cl)s2)CCNCC1)c1ccc(OC(F)(F)F)cc1` [Compound 73, N-(4-(5-chlorothiazol-2-yl)piperidin-4-yl)-4-(trifluoromethoxy)benzenesulfonamide] and `O=S(=O)(NC1(c2ccccc2)CCNCC1)c1ccc(OC(F)(F)F)nc1` [Compound 60, N-(4-phenylpiperidin-4-yl)-6-(trifluoromethoxy)pyridine-3-sulfonamide] are within 1.5-fold of each other in GI50: 56.4 µM for the first, 49.6 µM for the second.

First: CC(C)(C)N1CCC(NS(=O)(=O)c2ccc(OC(F)(F)F)cc2)C1c1ccc(Cl)c(F)c1 (single isomer, unassigned; enantiomer 1) [Compound 37, trans N-(1-(tert-butyl)-2-(4-chloro-3-fluorophenyl)pyrrolidin-3-yl)-4-(trifluoromethoxy)benzene-sulfonamide enantiomer 1]
Second: O=C(OCc1ccccc1)N1CCC(NS(=O)(=O)c2ccc(OC(F)(F)F)cc2)(c2ccc(Cl)c(Cl)c2)C1 (stereo not shown) [Compound 40]
The GI50 of the first is 1.6-fold lower: 16 µM for the first, 25.5 µM for the second.

First: O=S(=O)(NC1(c2ccccc2)CC2CCC(C1)N2)c1ccc(OC(F)(F)F)cc1 (stereo not shown) [Compound 86, N-(3-phenyl-8-azabicyclo[3.2.1]octan-3-yl)-4-(trifluoromethoxy)benzenesulfonamide]
Second: O=S(=O)(NC1(c2ccccc2)CCN(Cc2ccccc2)C1)c1ccc(OC(F)(F)F)cc1 (stereo not shown) [Compound 35, N-(1-benzyl-3-phenylpyrrolidin-3-yl)-4-(trifluoromethoxy)benzene-sulfonamide]
The GI50 of the first is 1.6-fold lower: 23.7 µM for the first, 38.7 µM for the second.

First: COC(=O)C12CC3(C)CC(C)(CC(NS(=O)(=O)c4ccc(OC(F)(F)F)cc4)(C3)C1)C2 [Compound 21]
Second: O=S(=O)(NC1(C23CC(C2)C3)CCNCC1)c1ccc(OC(F)(F)F)cc1 [Compound 66, N-(4-(bicyclo[1.1.1]pentan-1-yl)piperidin-4-yl)-4-(trifluoromethoxy)benzenesulfonamide]
The GI50 of the first is 2.3-fold lower: 30 µM for the first, 68.6 µM for the second.

For `NS(=O)(=NC1(c2ccc(Cl)cc2)CCNCC1)c1ccc(OC(F)(F)F)cc1` (stereo not shown) [Compound 96, N′-(4-(4-chlorophenyl)piperidin-4-yl)-4-(trifluoromethoxy)benzenesulfonimidamide], the GI50 was 13.7 µM.

Same assay, conditions: LNCaP cell line, 48 hours treatment

In the case of `O=S(=O)(NC1CCCC1c1ccc(Cl)c(Cl)c1)c1ccc(OC(F)(F)F)cc1` (single isomer, unassigned) [Compound 44, N-(2-(3,4-dichlorophenyl)cyclopentyl)-4-(trifluoromethoxy)benzenesulfonamide], the GI50 is reported as 45.4 µM.
